Assay results taken from patent US20050119238A1, “Compositions and methods for preventing sporadic neoplasia in colon” (priority 2002, published 2005).

What was measured:
[1] = system: patients with sporadic (non-hereditary) colorectal neoplasia (adenomas); assay: Randomized, double-blind, placebo-controlled study of aspirin on occurrence of large bowel adenomas; assay type: in vivo, human
Text: Patients were recruited at nine centers in North America.
By protocol, subjects were to have a complete surveillance colonoscopy 34-40 months after the qualifying examination. At each colonoscopy, the endoscopist recorded the estimated size and location of all polyps and mucosal lesions suspicious for neoplasia as per usual clinical practice. Each lesion was removed and examined histologically at the clinical center and by the study pathologist. Polyps were classified as neoplastic (adenomatous) or non-neoplastic (e.g., hyperplastic) by the study pathologist.
The primary study outcome was the proportion of subjects with one or more colorectal adenomas detected during the period from one year after randomization through the anticipated surveillance follow-up. If a surveillance colonoscopy was not performed during the protocol time window, the last examination at least one year after randomization was taken as the follow-up exam. Pre-specified secondary outcomes were the numbers of large-bowel adenomas and “advanced lesions”: tubulovillous adenomas (25 to 75 percent villous features), villous adenomas (>75 percent villous), large adenomas ([…]), severe dysplasia, or invasive cancer. Separate analyses were also conducted for lesions in the left colorectum (descending colon, sigmoid colon, and rectum) and right colorectum (the remainder of the bowel).

[2] = Serious medical events in the randomized placebo-controlled aspirin study; conditions: for Serious Bleeding, Gastrointestinal / Serious Bleeding, Genitourinary: bleeding leading to hospitalization or surgical intervention
Protocol: A multi-center, randomized, double-blind, placebo-controlled study was performed that examined the effects of aspirin alone as well as folate treatment combined with aspirin on the occurrence of large bowel adenomas. The study has a 3-by-2 factorial design, investigating aspirin (placebo, 81 mg/day, or 325 mg/day) and folic acid (placebo or 1 mg/day). Patients were recruited at nine centers in North America. Eligible subjects had at least one of the following: (1) one or more histologically confirmed large-bowel adenomas removed within 3 months prior to recruitment, (2) one or more histologically confirmed large-bowel adenomas removed within 16 months before recruitment and a lifetime history of 2 or more confirmed large-bowel adenomas, or (3) a histologically confirmed large-bowel adenoma at least 1 cm in diameter removed within 16 months before recruitment. […] Eligible subjects were between 21 and 80 years old, in good health, and with anticipated colonoscopic follow-up three years after the qualifying examination. Exclusion criteria included a history of a familial colorectal cancer syndrome, invasive large-bowel cancer, malabsorption syndromes, any condition potentially worsened by supplemental aspirin or folic acid, or any condition commonly treated with aspirin, non-steroidal anti-inflammatory drugs (NSAIDs), or folate (e.g., recurrent arthritis, atherosclerotic vascular disease, folic acid deficiency).
Study coordinators at each center maintained contact with the subjects on a regular basis; interval questionnaires regarding possible side effects and medical events were completed every four months by each subject.
Subjects were regularly counseled regarding avoidance of aspirin and other NSAIDs. Lists of products containing aspirin, ibuprofen, or naproxen were provided, and acetaminophen was distributed for treatment of minor febrile illnesses and pain. Every four months, subjects received questionnaires regarding adherence to study treatment; use of medications, over-the-counter drugs and nutritional supplements; and occurrence of symptoms, illnesses, and hospitalizations.
The statistical analysis compared the aspirin treatment groups irrespective of folic acid treatment. Subjects who underwent a follow-up endoscopy at least one year following randomization were included in the analyses. The predefined primary statistical analysis was a 2 degree-of-freedom chi-squared test for a contingency table comparing treatment groups regarding risk of one or more new adenomas. Crude risk ratios and 95 percent confidence intervals were used to compare treatment groups to placebo. Adjusted risk ratios were obtained from log-linear models with age, gender, clinical center, number of lifetime adenomas, and duration of follow-up as covariates. […] Possible modification of treatment effects by baseline characteristics was assessed using interaction terms in the log-linear model. Counts of other clinical endpoints were compared using Fisher's exact test. To compare the effect of aspirin on different types of polyps, a logistic regression model was used with generalized estimating equations (Liang and Zeger Biometrika 1986:13-22) to account for the clustering of multiple endpoints within patients. […] Two-sided P-values <0.05 were considered statistically significant.

In the case of CC(=O)Oc1ccccc1C(=O)O [aspirin, acetylsalicylic acid], the “Relative Crude Risk (95% CI)” value ([1]; Any adenoma, both aspirin groups combined versus placebo) is reported as 0.88 (0.77-1.02), the incidence of adenomas ([1]; patients randomized to the aspirin groups) is reported as “significantly lower” and the “Coronary Revascularization” value ([2]; 81 mg aspirin (N = 377)) is reported as 3 no of subjects. The Deaths ([2]; 81 mg aspirin (N = 377)) was 3 no of subjects, the “Died (percent)” value ([2]; 81 mg aspirin (N = 377)) was 0.8% and the Hospitalization ([2]; 81 mg aspirin (N = 377)) was 61 no of subjects. For the same compound, the “Myocardial Infarction” value ([2]; 81 mg aspirin (N = 377)) was 2 no of subjects, the “Non-Colorectal Cancer” value ([2]; 81 mg aspirin (N = 377)) was 14 no of subjects and the Stroke ([2]; 81 mg aspirin (N = 377)) was 2 no of subjects. For the same compound, the “Serious Bleeding, Gastrointestinal” value ([2]; 81 mg aspirin (N = 377)) was 2 no of subjects, the “Serious Bleeding, Genitourinary” value ([2]; 81 mg aspirin (N = 377)) was 6 no of subjects and the “Coronary Revascularization” value ([2]; 325 mg aspirin (N = 372)) was 5 no of subjects. For the same compound, the Deaths ([2]; 325 mg aspirin (N = 372)) was 4 no of subjects, the “Died (percent)” value ([2]; 325 mg aspirin (N = 372)) was 1.1% and the Hospitalization ([2]; 325 mg aspirin (N = 372)) was 57 no of subjects. For the same compound, the “Myocardial Infarction” value ([2]; 325 mg aspirin (N = 372)) was 4 no of subjects, the “Non-Colorectal Cancer” value ([2]; 325 mg aspirin (N = 372)) was 9 no of subjects and the Stroke ([2]; 325 mg aspirin (N = 372)) was 5 no of subjects. The “Serious Bleeding, Gastrointestinal” value ([2]; 325 mg aspirin (N = 372)) was 4 no of subjects, the “Serious Bleeding, Genitourinary” value ([2]; 325 mg aspirin (N = 372)) was 2 no of subjects and the “Hospitalization, cancer and myocardial infarction, occurrence” value ([2]; aspirin groups versus placebo, differences compatible with chance) was “somewhat more frequently”. For the same compound, the “patients diagnosed with a stroke (all non-fatal)” value ([2]; both aspirin groups together, none on placebo) was “Seven”.
